In patent publication US20260347399A1, “BRAIN PENETRATING PEPTIDES AND METHODS OF USE” (priority 2022, published 2026):
Ends that are not written are not given here.

Assays:
[1] = tested on: WT-GBM, VEGFko, U87MG or NCH421k GBM; assay: CVG peptide-phage homing in glioblastoma (four models); type: in vivo, mouse; conditions: peptide-phage i.v., 1 h
Protocol: To assess homing of CVG peptide in glioblastoma, CVGTNCY (SEQ ID NO:2) peptide-phage was injected iv into mice bearing either WT-GBM, VEGFko, U87MG or NCH421k GBM, and to mice without a tumor. At one hour time point mice were perfused, brains and control organs collected and titered. […] (FIGS. 17A-17B) Distribution of CVG peptide in GBM and brain parenchyma was also assessed. CVGTNCY (SEQ ID NO:2) peptide or its scrambled version (CVYTCNG; (SEQ ID NO: 68)) was injected iv into glioma bearing mice, after 1 hour circulation mice were perfused and tissues of interest snap-frozen in liquid nitrogen.

brain parenchyma = assay: Peptide-phage homing in vivo vs ex vivo; design: species or system mouse
P3 stem cells = assay: In vitro phage binding to cells; type: cell-based, human; conditions: 4 °C, 1 h, highest ratio
Protocol: To assess the binding of Cerepep phage, the cells were cultured in 24-well plates on polylysine coated glass coverslips until 80-90% confluency. The cells were incubated with Cerepep or control insertless peptide-phage at a final concentration of 5×10^7 pfu in 1 ml of DMEM+BSA (1%) at 4 °C for 1 h on a rocking platform. The wells were washed 4 times with 1 ml of DMEM+BSA (1%), the cells were lysed in 1 ml LB+NP40 and the amount of phage bound to the cells was determined by titering.
Binding of SRRVISRAKLAAAL (SEQ ID NO:9) phage to a panel of different cell lines was studied in vitro.

Neuro2A cells = assay: In vitro AgNP binding and internalization; type: cell-based, mouse; conditions: pre-incubated with 100 μM free peptide, 1 h, 37 °C
Protocol: To assess the binding and uptake of silver nanoparticles functionalized with Cerepep, Neuro2A were cultured in 24-well plates on polylysine coated glass coverslips until 80-90% confluency. Biotinylated Cerepep peptide or biotin as a non-targeted control and CF555 dye were conjugated to neutravidin-AgNPs prepared as described previously (Tobi et al., 2021). Some samples were pre-incubated with 100 μM Cerepep peptide (Ac-SERVISRAKLAAAL-OH (SEQ ID NO:9), where Ac-acetylation) at 37 °C for 1 h to assess whether the binding and internalization of particles is peptide-dependent. 10 μl (OD=100) of CP-AgNPs or control biotin-AgNPs were added to cells in 500 μl of media and incubated at 37 °C for 1h. In some samples, the cell surface-bound AgNPs were removed with a freshly prepared etching solution containing 10 mM of Na2S2O3 and K3Fe(CN)6 in PBS, which was applied for 3 min. All the samples were washed with DPBS to remove unbound AgNPs. The cells were fixed in methanol, stained with DAPI and analyzed with confocal microscopy as described above.
Next, the interaction of cultured Neuro2A cells with neutravidin-AgNPs labeled with NHS-CF555 dye and functionalized with biotinylated SRRVISRAKLAAAL (SEQ ID NO: 9) (CP-AgNPs) was tested.

rat brain = assay: Peptide-phage biodistribution after i.v. injection, rats; type: in vivo; conditions: 1 h
Protocol: For titering-based biodistribution studies, nucleotide sequences coding for peptides of interest were cloned into T7 phage genomic DNA to be expressed on the phage surface as C-terminal fusions to capsid protein. The cloning was performed using complementary oligonucleotides, the phage clones were amplified, and purified as described in (Põšnograjeva, et al., 2022). 5×10^9 pfu of peptide-phage clone was injected i.v. into male Balb/C mice or 5×10^10 pfu of phage was injected into female Sprague-Dawley rats (n=3). 60 min later, the animals were anesthetized and perfused with PBS. The tissues were collected, homogenized, and the amount of phage in tissue lysates was determined by titering using E. coli strain BLT5615.
The brain selectivity of SRRVISRAKLAAAL (SEQ ID NO:9) phage following a systemic administration was studied in mice and rats by determining the titer of […] (SEQ ID NO:9) and control phage in multiple control tissues.

WT GBM cells = assay: Proximity labelling with peptide-HRP complex and mass spectrometry; type: cell-based, mouse; conditions: WT GBM and Neuro2A proximity labelling, mass spectrometry
Protocol: To assess the efficiency and specificity of proximity labelling, WT GBM cells were cultured in 24-well plates on polylysine coated glass coverslips until 80-90% confluency. Cerepep and horseradish peroxidase complex (CP-HRP) was prepared by conjugating biotinylated Cerepep to streptavidin-HRP. Control biotin-HRP complex was prepared by conjugating biotin to streptavidin-HRP. 4 μM CP-HRP or biot-HRP in DPBS was added to the cells and incubated at 37 °C for 1 h. The cells were washed with DPBS. 500 μM biotin-phenol (Iris Biotech #41994-02-9) in DPBS was added to the cells and incubated at 37 °C for 30 min. To start the reaction, H2O2 with the final concentration of 1 mM was added to the cells and incubated for 2 min at RT. The reaction was stopped by washing with 100 U/ml catalase in DPBS. Cells were fixed in 4% PFA and biotinylated proteins were detected with Streptavidin-Dylight 550 conjugate (1:500 in DPBS). Nuclei were stained with DAPI and the biotinylation of cells was analyzed with confocal microscopy.
To biotinylate the receptor of Cerepep peptide to be detected with mass spectrometry, the proximity labelling was performed on WT GBM and Neuro2A cells in suspension following the same protocol as with attached cells. […]
Biotin was detected with Streptavidin DyLight550. The WT GBM cells were analyzed with confocal microscopy. […]

Row | Substance | PFU per mg of GBM vs normal brain [1] | ratio of CVG over G7 in GBM vs normal brain [1] | brain homing in vivo after iv injection (brain parenchyma) | binding of peptide-phage, fold over insertless phage (P3 stem cells) | effect of free peptide on binding and internalization of CP-AgNPs (Neuro2A cells) | brain selectivity (titer in brain vs control tissues) (rat brain) | most probable receptor candidate (WT GBM cells)
1 | CVGTNCY | greater than normal brain tissue | lower than in normal brain | homes to the brain parenchyma |  |  |  | 
2 | SRRVISRAKLAAAL [Cerepep, SRRVISRAKLAAAL] |  |  |  | at least 50 fold | abolished | highest accumulation in the brain and low accumulation in all other tested tissues | LRP1 was considered the most probable candidate
